The source of these data is paper PMC4104029, “Mechanism of Action of Compound-13: An α1-Selective Small Molecule Activator of AMPK” (Chemistry & Biology, 2014).

Structures are written as SMILES.

The experiment concerns the target T1, AMPK α2/α1 CAT β1γ1 (Homo sapiens, UniProt P54619+P54646, A116S/A126G/A242I/C200S/E112D/E217D/E235Q/E34K/F89I/G228D/H108N/I233T/I32V/K62R/L254M/M114K/M246K/Q36E/R227C/R239P/T243S/T87S/V111L/V17I/V230I).
T1 construct: 6×His (N); made in house; host or cells: E. coli (tricistronic pET15-b construct)
Briefly: Chimeric AMPK complex activation assay. Type of experiment: biochemical. Conditions: complex expressed in E. coli; read-out: EC50, allosteric activation. The source says:
Figure 3 Regulatory Elements within the α-Linker Determine the Isoform Specificity of C2 (A) Diagram illustrating the domain organization of the AMPKα subunit with a global pairwise alignment of a section of the α-linker of human AMPKα1 (Q13131) and AMPKα2 (P54646). Regulatory elements in the α-linker are highlighted, including the α-hook as originally defined by [Xiao et al. (2011)] (pink) and the reassigned sequence (also known as α-RIM2) shaded in orange. The secondary structure for α1 is derived from PDB ID 2Y94. The table summarizes the sequences of the α1/α2 chimeras produced to examine the role of various structural elements in the activation of α2β1γ1 complexes by C2. (B–E) Human AMPKα1/α2 chimeras (defined in A) were generated as complexes with β1γ1 in E. coli. Purified active complexes were assayed for the activation of phosphotransferase activity by AMP and C2, as described in Figure 1. Results (line graphs) are expressed as the fold increase in activity relative to reactions performed in the absence of compound and represent the mean ± SD of three independent experiments. Complexes were also assayed for protection against dephosphorylation and inactivation by PP2Cα, as described in Figures 2C and 2D. Results (bar charts) are expressed as the mean (percentage of control) ± SD of three independent experiments. Representative blots of pT172 and total AMPKα are shown below the bar charts. TEXT PRINTED IN THE PICTURE: (B) C2: AMPK211 - α2/α1 CAT: EC50: ND | (B) AMP: AMPK211 - α2/α1 CAT: EC50: 1.3 ± 0.2 μM | (C) C2: AMPK211 - α2/α1 REG: EC50: 0.009 ± 0.0006 μM | (C) AMP: AMPK211 - α2/α1 REG: EC50: 3.1 ± 0.3 μM | (D) C2: AMPK211 - α2/α1 HOOK: EC50: ND | (D) AMP: AMPK211 - α2/α1 HOOK: EC50: 1.4 ± 0.2 μM | (E) C2: AMPK211 + α2/α1 LOOP: EC50: 0.013 ± 0.001 μM | (E) AMP: AMPK211 + α2/α1 LOOP: EC50: 2.7 ± 0.3 μM […]
AMPK phosphotransferase activity was assayed in reactions (50 μl) containing 50 mM HEPES, pH 7.4, 10 mM MgCl2, 0.1 mM EGTA, 1 mM DTT, 0.01% BRIJ-35, 100 μM [γ-^32P]ATP (∼250 CPM⋅pmol^−1) and 200 μM AMARA (AMARAASAAALARRR). Reactions were started by the addition of AMPK (5 mU), incubated for 20 min at 30°C and quenched by spotting onto P81 and immersion in 75 mM H3PO4. Washed filters were dried and [^32P] incorporation determined by Cherenkov counting. AMPK activity in cell extracts was determined by immunoprecipitation with AMPKα1 or AMPKα2 antibodies from 50 μg material, as previously described ([Hunter et al., 2011]). […]

T1 sequence (P54619 whole entry, stated change not applied): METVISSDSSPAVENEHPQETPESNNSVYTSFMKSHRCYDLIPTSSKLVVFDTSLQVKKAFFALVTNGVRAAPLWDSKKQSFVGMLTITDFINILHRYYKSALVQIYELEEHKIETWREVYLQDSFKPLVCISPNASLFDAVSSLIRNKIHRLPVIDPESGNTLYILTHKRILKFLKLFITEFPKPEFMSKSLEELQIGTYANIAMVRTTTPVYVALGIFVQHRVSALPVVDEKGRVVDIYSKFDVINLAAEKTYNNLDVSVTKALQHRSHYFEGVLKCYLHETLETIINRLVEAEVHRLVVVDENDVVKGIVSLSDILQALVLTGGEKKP
T1 sequence (Q9Y478 whole entry, further chain): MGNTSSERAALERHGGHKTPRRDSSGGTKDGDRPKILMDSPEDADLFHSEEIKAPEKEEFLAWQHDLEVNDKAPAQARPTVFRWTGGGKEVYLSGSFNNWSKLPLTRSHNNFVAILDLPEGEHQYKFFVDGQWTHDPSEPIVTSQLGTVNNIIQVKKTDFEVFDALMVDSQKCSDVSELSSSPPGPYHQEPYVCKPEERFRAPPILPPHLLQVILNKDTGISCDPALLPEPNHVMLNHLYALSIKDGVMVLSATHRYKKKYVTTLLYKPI
T1 sequence (P54646 other isoform, or with tags, fused parts or gaps with the stated changes): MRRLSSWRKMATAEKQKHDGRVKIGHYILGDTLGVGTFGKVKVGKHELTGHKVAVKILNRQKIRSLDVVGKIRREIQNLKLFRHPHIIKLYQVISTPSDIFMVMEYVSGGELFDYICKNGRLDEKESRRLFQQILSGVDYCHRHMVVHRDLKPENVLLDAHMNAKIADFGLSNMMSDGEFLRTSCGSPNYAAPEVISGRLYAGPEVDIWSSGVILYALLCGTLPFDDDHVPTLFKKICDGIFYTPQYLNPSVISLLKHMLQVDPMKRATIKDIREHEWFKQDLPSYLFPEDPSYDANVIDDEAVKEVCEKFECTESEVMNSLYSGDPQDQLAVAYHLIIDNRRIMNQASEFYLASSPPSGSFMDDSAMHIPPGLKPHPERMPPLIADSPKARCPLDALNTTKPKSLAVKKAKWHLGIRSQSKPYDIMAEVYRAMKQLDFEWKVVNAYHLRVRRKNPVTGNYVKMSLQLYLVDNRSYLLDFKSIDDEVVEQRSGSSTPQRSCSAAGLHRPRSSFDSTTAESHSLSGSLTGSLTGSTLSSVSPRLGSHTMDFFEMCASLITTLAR

Consider `Nc1ncnc2c1ncn2[C@@H]1O[C@H](COP(=O)(O)O)[C@@H](O)[C@H]1O` [AMP, reference compound], for which the EC50 – broadly, the concentration that produces a half-maximal response – is 1300 ± 200 nM.
